Measured values: article PMC3879379, “Gold(III)-Dithiocarbamato Peptidomimetics in the Forefront of the Targeted Anticancer Therapy: Preclinical Studies against Human Breast Neoplasia” (PLoS ONE, 2014)
Read-outs that look alike come from different tables or passages of the source.

How the values were obtained:
MDA-MB-231 cells [1] = assay: MTT assay with ROS scavenger Trolox (pretreatment or co-treatment); assay type: cell-based, human; settings: for reduction of IC50 by co-treatment with Trolox: MDA-MB-231, 24 h co-treatment with Trolox 100 µM
Experimental: In order to investigate whether cell death is affected by free radicals produced in situ by our compounds, cells were seeded in quadruplicate and treated with both complexes and Trolox. We first pretreated cells for 1 h with Trolox at 100 µM and after changing medium, treated cells with compounds and incubated for an additional 24 h. Alternatively, we co-treated cells for 24 h with both compounds and Trolox (100 µM), followed by MTT assay.

MDA-MB-231 xenografts [2] = assay: Human breast tumor xenograft growth; assay type: in vivo, female athymic nude mice; settings: 1.0 mg kg^−1 d^−1 s.c.
Experimental: Seven-week-old female athymic nude mice were purchased from Harlan Laboratories (Indianapolis, USA) and housed in accordance with protocols approved by the Institutional Laboratory Animal Care and Use Committee of Wayne State University. Human breast cancer MDA-MB-231 cells suspended in 0.1 mL of serum-free DMEM/F12 cell growth medium were inoculated subcutaneously (s.c.) into the right flank of each mouse. When tumors reached a volume of around 115 mm^3, the mice were randomly allocated into three groups (seven mice per group) and treated five days a week by s.c. injection of either vehicle [1∶1∶1 v/v PBS, DMSO, Cremophore/ethanol (1∶4)] or medium containing 1.0 mg/kg of AuD6 or AuD8. Tumor length (L) and width (W) were measured every other day using a caliper, and tumor volumes were evaluated according to the standard formula (π ⋅ L ⋅ W^2)/6. Mouse weights were monitored weekly. Four mice per group were sacrificed after 27 days of treatment, or when tumors reached ∼1,800 mm^3, and the remaining three mice per group were sacrificed after 13 days to observe any early effects of treatments. The tumors were collected and weighed. Tumor tissues were used to measure proteasome inhibition and caspase-3 activation by enzymatic activity assays and by Western blot analysis. […]

MDA-MB-231 cells [3] = assay: Annexin-V FITC/PI apoptosis assay (flow cytometry); assay type: cell-based, human; settings: MDA-MB-231, 20 µM; for cells in early stage apoptosis: 16 or 24 h (time not specified)
Experimental: Apoptosis indexes were measured using the Annexin-V fluorescein isothiocyanate (FITC) apoptosis detection kit I from by BD Pharmingen. MDA-MB-231 cells were grown to around 75% confluence, treated with gold-based complexes (20 µM) or solvent as a control for 16 or 24 h, harvested by means of a scraper and centrifugation. Cell pellets were washed twice with ice cold PBS and cells were then resuspended in 1× binding buffer at a concentration of 1•10^6 cells/mL. 100 µL of the suspension was then transferred to a 5 mL flow cytometry tube and 5 µL FITC Annexin V and 5 µL PI for double stained samples (either 5 µL of FITC Annexin V or 5 µL of PI for controls) were added. Mixtures were gently vortexed and incubated for 15 min at RT in the dark followed by addition of 400 µL 1× binding buffer to each tube. Then, analysis by flow cytometry occurred within 1 h at the Microscopy, Imaging and Cytometry Resources (MICR) Core at the Karmanos Cancer Institute, Wayne State University. Data (Figure 3) are presented as density plots of Annexin-V (x-axis) and propidium iodide (PI, y-axis) stainings. Unstained cells, cells stained with either PI or FITC Annexin-V only, and untreated cells stained with both PI and Annexin-V were used to set up compensation and quadrants. The excitation wavelength was 488 nm and the detection wavelengths were 530±15 and 620±21 nm for Annexin V and PI, respectively. Cells staining negative for both markers were considered viable since Annexin V and PI are both cell membrane impermeable while cells staining positive for both markers were considered in late apoptosis. Cells staining positive for Annexin only were considered in early apoptosis whereas cells staining positive for PI only were considered dead by a necrotic pathway. Percentages of viable, apoptotic, and necrotic cells are reported in the corner of each quadrant (Figure 3).

MDA-MB-231 cells [4] = assay: Cellular morphology (phase contrast imaging); assay type: cell-based, human; settings: MDA-MB-231, 24 h
Description: A Zeiss (Thornwood, NY) Axiovert 25 microscope was used for cellular morphology microscopic imaging with phase contrast.

p27 = assay: Western blot of p27 in treated cells; assay type: cell-based, human; settings: MDA-MB-231, 24 h
Experimental: MDA-MB-231 cells were grown to around 75% confluence, treated with gold-based complexes or solvent as a control, harvested, and lysed. Cell lysates (30 µg/lane) were separated by SDS-PAGE and transferred to a nitrocellulose membrane. After blocking of non-specific binding (5% non-fat dry milk in Tris-Buffered Saline with Tween 20-TBST), membranes were incubated overnight at 4°C with primary antibodies, followed by washing with TBST and incubation for 2 h with secondary antibodies. Bands of interest were visualized using HyGLO Chemiluminescent HRP Antibody detection reagent, HyBlot Chemiluminescence films (Denville Scientific Inc.; Metuchen, NJ) and a HOPE Micro-MAX film processor.

[5] = molecular target: T1, proteasomal CT-like activity (Homo sapiens, UniProt P28074); assay: Proteasomal CT-like activity in xenograft tumor tissue; assay type: in vivo, female athymic nude mice; settings: xenograft tumors, 1 mg kg^−1 d^−1, after 27 days of treatment
T1 construct: from tissue; host or cells: MDA-MB-231 xenograft tumour tissue from female athymic nude mice
T1 sequence (P28074 60-263): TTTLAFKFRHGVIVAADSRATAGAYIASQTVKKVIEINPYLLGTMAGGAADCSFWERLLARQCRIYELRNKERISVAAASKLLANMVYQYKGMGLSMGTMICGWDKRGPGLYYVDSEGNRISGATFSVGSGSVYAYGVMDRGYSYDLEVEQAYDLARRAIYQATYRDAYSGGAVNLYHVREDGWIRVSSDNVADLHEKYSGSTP
Experimental: Seven-week-old female athymic nude mice were purchased from Harlan Laboratories (Indianapolis, USA) and housed in accordance with protocols approved by the Institutional Laboratory Animal Care and Use Committee of Wayne State University. Human breast cancer MDA-MB-231 cells suspended in 0.1 mL of serum-free DMEM/F12 cell growth medium were inoculated subcutaneously (s.c.) into the right flank of each mouse. When tumors reached a volume of around 115 mm^3, the mice were randomly allocated into three groups (seven mice per group) and treated five days a week by s.c. injection of either vehicle [1∶1∶1 v/v PBS, DMSO, Cremophore/ethanol (1∶4)] or medium containing 1.0 mg/kg of AuD6 or AuD8. Tumor length (L) and width (W) were measured every other day using a caliper, and tumor volumes were evaluated according to the standard formula (π ⋅ L ⋅ W^2)/6. Mouse weights were monitored weekly. Four mice per group were sacrificed after 27 days of treatment, or when tumors reached ∼1,800 mm^3, and the remaining three mice per group were sacrificed after 13 days to observe any early effects of treatments. The tumors were collected and weighed. Tumor tissues were used to measure proteasome inhibition and caspase-3 activation by enzymatic activity assays and by Western blot analysis.

[6] = molecular target: T2, Purified human 20S proteasome (Homo sapiens, UniProt P28072+P28074+Q99436); assay: Proteasome activity assay on purified 20S proteasome (fluorogenic substrates); assay type: biochemical; settings: 2 h incubation
T2 construct: purchased Boston Biochem (Boston, MA)
Experimental: Purified human 20S proteasome (0.5 nM) was incubated in triplicate with three different proteasomal fluorogenic substrates (20 µM) and each compound (dissolved in DMSO) at various concentrations ranging from 0.1 to 10 µM (or an equivalent volume of solvent DMSO as a control) in 100 µL of assay buffer [20 mM Tris-HCl (pH 7.5)].

[7] = molecular target: T3, proteasome of MDA-MB-231 cell extract (Homo sapiens, UniProt P28072+P28074+Q99436); assay: Proteasome activity assay on MDA-MB-231 whole-cell extract; assay type: biochemical; settings: 2 h incubation
T3 construct: endogenous in cells; host or cells: MDA-MB-231 whole-cell extract
T3 sequence (P28074 60-263): T1 sequence (P28074 60-263)
T3 sequence (P28072 1-239): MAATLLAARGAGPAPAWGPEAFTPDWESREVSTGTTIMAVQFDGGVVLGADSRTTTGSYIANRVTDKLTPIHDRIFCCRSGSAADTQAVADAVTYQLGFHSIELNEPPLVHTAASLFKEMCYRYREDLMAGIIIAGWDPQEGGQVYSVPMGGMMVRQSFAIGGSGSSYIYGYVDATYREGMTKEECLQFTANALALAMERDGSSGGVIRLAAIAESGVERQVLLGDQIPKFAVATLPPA
T3 sequence (Q99436 44-277): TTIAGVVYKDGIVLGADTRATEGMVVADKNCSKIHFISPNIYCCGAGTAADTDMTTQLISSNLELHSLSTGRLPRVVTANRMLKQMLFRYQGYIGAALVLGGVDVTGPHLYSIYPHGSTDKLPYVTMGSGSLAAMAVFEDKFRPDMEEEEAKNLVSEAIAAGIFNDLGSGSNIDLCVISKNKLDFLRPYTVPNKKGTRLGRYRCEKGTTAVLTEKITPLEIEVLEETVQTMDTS
Experimental: Likewise, MDA-MB-231 whole-cell extract (10 µg/well) was incubated in quadruplicate with each complex and each fluorogenic substrate in 100 µL of assay buffer [20 mM Tris-HCl (pH 7.5)]. Fluorescence data were acquired after 1 hour and 2 hours incubation at 37°C. The whole-cell extract was prepared as described elsewhere.

MDA-MB-231 xenografts [8] = assay: Immunohistochemical p27 and TUNEL staining of tumor samples; assay type: in vivo, female athymic nude mice; settings: xenograft tumors, 1 mg kg^−1 d^−1
Experimental: IHC was performed using a previously reported protocol. Briefly, tumor samples were paraffin-embedded by the Pathology Core at Karmanos Cancer Institute (Detroit, MI, USA). Samples were then cut and stained for p27 or TUNEL by the BioBank at William Beaumont Hospital (Royal Oak, MI, USA). Anti-p27 (VP-P951) was from Vector Laboratories (Burlingame, CA, USA) and was used at a 1∶30 dilution followed by detection by DAKO. Samples were counterstained with DAB/Hematoxylin. TUNEL staining was performed using anti-digoxigenin and peroxidase substrate, followed by counterstaining with methyl green. In both cases, brown colored cells were considered positive.

MDA-MB-231 cells [9] = assay: MTT cell proliferation assay; assay type: cell-based, human; settings: for IC50: read-out: IC50 (MTT, inhibition of cell proliferation)
Experimental: Human breast cancer MDA-MB-231 cells were obtained from American Type Culture Collection (Manassas, VA) and grown in DMEM/F12 supplemented with 10% fetal bovine serum, 1 mM sodium pyruvate, 10 mM HEPES, 100 U/mL penicillin and 100 µg/mL streptomycin. Cells were grown in a humidified incubator with 5% CO2 at 37°C. Cells were seeded in octuplicate in 96-well plates and grown to 70%–80% confluence, followed by treatment with DMSO (control) or each compound (dissolved in DMSO) in fresh medium at the indicated concentrations. After 24 or 72 hours incubation at 37°C, inhibition of cell proliferation was measured by MTT assay, as previously described. The cytotoxicity of the compounds was quantified as the percentage of cells surviving relative to untreated cells. Four MTT tests for each compound were performed in order to evaluate the corresponding IC50 values.

[10] = read-out: IC50 Chymotrypsin-like activity
[11] = read-out: IC50 PGPH-like activity
[12] = read-out: IC50 Trypsin-like activity

| reduction of IC50 by co-treatment with Trolox (MDA-MB-231 cells [1]) | inhibition of the proteasomal CT-like pocket in tumor tissue [5] [%] | IC50 [6, 10] [nM] | IC50 [6, 11] [nM] | IC50 [6, 12] [nM] | IC50 [7, 10] [nM] | IC50 [7, 11] [nM] | IC50 [7, 12] [nM] | Compound | cells in early stage apoptosis (MDA-MB-231 cells [3]) | apoptotic cells at late stage (upper right quadrant) (MDA-MB-231 cells [3]; 24 h) [%] | concentration at which apoptotic morphological changes were observed (MDA-MB-231 cells [4]) [µM] | TUNEL positive (staining of tumor) (MDA-MB-231 xenografts [8]) [%] | p27 positive (immunohistochemical staining of tumor) (MDA-MB-231 xenografts [8]) [%] | also measured |
| --- | --- | --- | --- | --- | --- | --- | --- | --- | --- | --- | --- | --- | --- | --- |
| very little effect | 33 | 290 ± 70 | 540 ± 80 | 610 ± 20 | 2900 ± 600 | 4500 ± 900 | 5700 ± 100 | C[N+](CC(=O)NC(C)(C)C(=O)OC(C)(C)C)=C1[S][Au-]([Br])([Br])[S]1 [AuD8, [Au^IIIBr2(dtc-Sar-AA-O(t-Bu))]] | 7–9% | 74.1 | 10 | ~30 | ~95 | inhibition of tumor growth compared to control (MDA-MB-231 xenografts [2]; 27 days, p<0.05): 53%; tumor volume at end of treatment (MDA-MB-231 xenografts [2]; day 27): 849±79 mm^3; apoptotic cells at late stage (upper right quadrant) (MDA-MB-231 cells [3]; 16 h): 62.9%; concentration inducing p27 accumulation (p27): below 1 µM |
|  |  |  |  |  |  |  |  | N.N.[Cl][Pt][Cl] [cisplatin, cis-diammineplatinum(II) dichloride] |  |  |  |  |  | growth-inhibitory effect (MDA-MB-231 cells [9]; MDA-MB-231, 100 µM, 24 h treatment): around 40%; IC50 (MTT, inhibition of cell proliferation) (MDA-MB-231 cells [9]; MDA-MB-231, 24 h treatment): not reached; IC50 (MDA-MB-231 cells [9]; MDA-MB-231, 24 h treatment): > 100000 nM |
|  |  |  |  |  |  |  |  | Cc1c(C)c2c(c(C)c1O)CCC(C)(C(=O)O)O2 (centres unmarked) [Trolox, reference compound] |  |  |  |  |  | inhibition at 100 µM (MDA-MB-231 cells [1]; Homo sapiens, MDA-MB-231, Trolox 100 µM, 24 h treatment, read-out: inhibition of tumor cell growth by Trolox alone): ~25% |
| approximately 3 fold | 14 | 420 ± 30 | 490 ± 90 | 510 ± 70 | 3300 ± 400 | 2300 ± 800 | 3000 ± 900 | C[N+](CC(=O)NCC(=O)OC(C)(C)C)=C1[S][Au-]([Br])([Br])[S]1 [AuD6, [Au^IIIBr2(dtc-Sar-AA-O(t-Bu))]] | 7–9% | 49 | 20 | ~75 | ~20 | IC50 (MDA-MB-231 cells [9]; MDA-MB-231, 72 h treatment): 13000 ± 1000 nM |
